Laboratory results from US20250215029A1 (Recludix Pharma, Inc., priority 2022, published 2025).
Read-outs that look alike come from different tables or passages of the source.

Target: T1, pY641-STAT6 in PBMC (Homo sapiens, UniProt P42226)
T1 construct: Cryopreserved Peripheral Blood Mononuclear Cells (PBMC) are from AllCells; host or cells: cryopreserved PBMC
T1 sequence (P42226 1-847): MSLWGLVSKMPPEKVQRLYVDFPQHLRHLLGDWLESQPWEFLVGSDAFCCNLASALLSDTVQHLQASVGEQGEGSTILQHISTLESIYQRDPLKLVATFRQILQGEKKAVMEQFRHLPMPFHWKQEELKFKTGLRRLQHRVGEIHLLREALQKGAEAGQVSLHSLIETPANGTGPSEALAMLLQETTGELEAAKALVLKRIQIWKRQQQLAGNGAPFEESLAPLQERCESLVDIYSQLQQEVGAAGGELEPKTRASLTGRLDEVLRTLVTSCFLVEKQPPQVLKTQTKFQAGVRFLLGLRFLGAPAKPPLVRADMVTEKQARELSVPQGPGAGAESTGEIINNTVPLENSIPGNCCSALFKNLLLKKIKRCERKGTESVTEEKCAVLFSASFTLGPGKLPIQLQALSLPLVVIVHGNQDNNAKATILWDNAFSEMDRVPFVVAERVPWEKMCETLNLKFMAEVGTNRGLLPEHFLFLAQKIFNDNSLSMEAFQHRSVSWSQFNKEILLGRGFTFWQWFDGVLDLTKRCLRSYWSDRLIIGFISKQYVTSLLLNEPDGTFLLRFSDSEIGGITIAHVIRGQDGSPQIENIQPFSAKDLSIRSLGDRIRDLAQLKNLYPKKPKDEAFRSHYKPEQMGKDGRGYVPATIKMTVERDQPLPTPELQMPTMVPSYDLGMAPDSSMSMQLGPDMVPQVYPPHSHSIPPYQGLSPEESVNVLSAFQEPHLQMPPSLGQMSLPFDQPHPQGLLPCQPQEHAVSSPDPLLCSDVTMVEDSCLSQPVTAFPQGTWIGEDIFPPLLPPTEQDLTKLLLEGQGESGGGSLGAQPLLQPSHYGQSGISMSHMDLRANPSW
Test: MSD-pSTAT-PBMC Assay (pSTAT6, IL-4 stimulated)
Type: cell-based
Conditions: compound 3 hrs, then 1 ng/mL IL-4 for 10 min, Table 115
Source text: Cryopreserved Peripheral Blood Mononuclear Cells (PBMC) are from AllCells. Recombinant Human IL-4 and IL-6 are from Peprotech. Mouse monoclonal anti-STAT3 antibody, rabbit monoclonal anti-pY705-STAT3 antibody, rabbit monoclonal Anti-pY641-STAT6 antibody, and lysis buffer are from Cell Signaling Technology (CST). Mouse monoclonal anti-STAT6 antibody is from BioLegend. Assay plates, blocker, and anti-rabbit secondary antibody are from Meso Scale Discovery (MSD).
Cyropreserved PBMCs were thawed out and allowed to recover overnight in IMDM+10% heat-inactivated FBS prior to plating 50,000 (STAT3) or 25,000 (STAT6) cells per well in 96-well U-bottom tissue culture plates. Cells were treated with compound for 3 hrs, then stimulated with 10 ng/mL IL-6 (STAT3) or 1 ng/mL IL-4 (STAT6) for 10 min. Cells were then spun down and washed with ice-cold PBS prior to lysing the cell pellet with 1× lysis buffer (CST) with 1× HALT protease and phosphatase inhibitor cocktail (Thermo). Lysates were transferred to and incubated overnight at 4° C. with shaking in QuickPlex 96-well high bind assay plates (MSD) pre-coated overnight with 30 μL per well of 0.6 μg/mL mouse monoclonal anti-STAT3 antibody (STAT3) or 2 μg/mL mouse monoclonal anti-STAT6 antibody (STAT6) in 1× PBS, and pre-blocked for 1 hour with 3% Blocker-A (MSD). Captured protein in the assay plates were then washed and probed with 25 μL per well of […] rabbit monoclonal anti-pY705-STAT3 antibody (STAT3) or 0.18 μg/ml rabbit monoclonal Anti-pY641-STAT6 antibody (STAT6) in 1% Blocker-A for 1 hour at room temperature with shaking, then washed and probed with 25 ul per well of 1 ug/ml Sulfo-TAG Labeled Goat Anti-Rabbit Antibody (MSD) in 1% Blocker-A for 1 hour at room temperature with shaking. Assay plates were then washed and 150 μL of 1× Read Buffer-T (MSD) was added to each well prior to reading on an SQ120 MSD Plate Reader. Assay signal from each sample was subtracted by the signal from unstimulated control wells and normalized to DMSO control wells. IC50 values were calculated using Graph Pad Prism Dose-Response Nonlinear Regression with variable slope. For both pSTAT3 and pSTAT6 A=≤100 nM; B 100-1000 nM; C=>1000-3000 nM; D=>3 μM; and NT=Not Tested.

Row | IC50 (PBMC, read-out: STAT6) | Structure (SMILES) | IC50 (STAT6, PBMC)
1 | < 0.1 µM | COCCOC(=O)[C@H](C)NP(=O)(OCC(F)(F)F)[C@@H](F)c1ccc2sc(C(=O)N[C@H]3CCCC[C@H]4CC[C@@H](C(=O)N5CC(c6ccccc6)C(C#N)C56CC6)N4C3=O)cc2c1 (stereo in doubt) [Compound 377, 2-methoxyethyl (((R)-(2-(((3S,6S,10aS)-3-((6S,7R)-7-cyano-6-phenyl-4-azaspiro[2.4]heptane-4-carbonyl)-5-oxodecahydropyrrolo [1,2-a]azocin-6-yl)carbamoyl)benzo [b]thiophen-5-yl)fluoromethyl)(2,2,2-trifluoroethoxy)phosphoryl)-L-alaninate] | –
2 | – | CCCOC(=O)[C@H](C)NP(=O)(Oc1ccccc1)[C@H](F)c1ccc2sc(C(=O)N[C@H]3CCCC[C@H]4CC[C@@H](C(=O)N5CC(c6cccnc6)CC56CC6)N4C3=O)cc2c1 (stereo in doubt) [Compound 458, propyl (((S)-fluoro(2-(((3S,6S,10aS)-5-oxo-3-((R)-6-(pyridin-3-yl)-4-azaspiro[2.4]heptane-4-carbonyl)decahydropyrrolo[1,2-a]azocin-6-yl)carbamoyl)benzo [b]thiophen-5-yl)methyl)(phenoxy)phosphoryl)-L-alaninate] | < 0.1 µM
3 | – | CCCOC(=O)[C@H](C)NP(=O)(Oc1ccccc1)C(F)c1ccc2sc(C(=O)N[C@H]3CCCC[C@H]4CC[C@@H](C(=O)N5C[C@H](c6cccnc6)CC56CC6)N4C3=O)cc2c1 (stereo in doubt) [Compound 459, propyl (((S)-fluoro(2-(((3S,6S,10aS)-5-oxo-3-((S)-6-(pyridin-3-yl)-4-azaspiro[2.4]heptane-4-carbonyl)decahydropyrrolo[1,2-a]azocin-6-yl)carbamoyl)benzo [b]thiophen-5-yl)methyl)(phenoxy)phosphoryl)-L-alaninate] | < 0.1 µM
4 | – | CCCOC(=O)[C@H](C)N[P@@](=O)(Oc1ccccc1)[C@@H](F)c1ccc2sc(C(=O)N[C@H]3CCCC[C@H]4CC[C@@H](C(=O)N5C[C@@H](c6cccnc6)CC56CC6)N4C3=O)cc2c1 (stereo in doubt) [Compound 460, propyl (((R)-fluoro(2-(((3S,6S,10aS)-5-oxo-3-((S)-6-(pyridin-3-yl)-4-azaspiro[2.4]heptane-4-carbonyl)decahydropyrrolo[1,2-a]azocin-6-yl)carbamoyl)benzo [b]thiophen-5-yl)methyl)(phenoxy)phosphoryl)-L-alaninate] | < 0.1 µM
5 | – | CCCOC(=O)[C@H](C)NP(=O)(Oc1ccccc1)[C@@H](F)c1ccc2sc(C(=O)N[C@H]3CCCC[C@H]4CC[C@@H](C(=O)N5C(=O)N(c6cncc(C)c6)C(=O)C56CC6)N4C3=O)cc2c1 (stereo partly drawn) [Compound 303, propyl (((R)-fluoro(2-(((3S,6S,10aS)-3-(6-(5-methylpyridin-3-yl)-5,7-dioxo-4,6-diazaspiro [2.4]heptane-4-carbonyl)-5-oxodecahydropyrrolo [1,2-a]azocin-6-yl)carbamoyl)benzo [b]thiophen-5-yl)methyl)(phenoxy)phosphoryl)-L-alaninate] | 0.1 to 1 µM
6 | – | CCCOC(=O)[C@H](C)NP(=O)(Cc1ccc2ccc(C(=O)N[C@H]3CCCC[C@H]4CC[C@@H](C(=O)N5CCC(c6cccnc6)C5)N4C3=O)cc2c1)Oc1ccccc1 (stereo partly drawn) [Compound 305, propyl (((7-(((3S,6S,10aS)-5-oxo-3-(3-(pyridin-3-yl)pyrrolidine-1-carbonyl)decahydropyrrolo[1,2-a]azocin-6-yl)carbamoyl)naphthalen-2-yl)methyl)(phenoxy)phosphoryl)-L-alaninate] | 0.1 to 1 µM
7 | – | CCCOC(=O)[C@H](C)NP(=O)(Oc1ccccc1)C(F)(F)c1ccc2ccc(C(=O)N[C@H]3CCCC[C@H]4CC[C@@H](C(=O)N5CCC(c6cccnc6)C5)N4C3=O)cc2c1 (stereo partly drawn) [Compound 312, propyl ((difluoro(7-(((3S,6S,10aS)-5-oxo-3-(3-(pyridin-3-yl)pyrrolidine-1-carbonyl)decahydropyrrolo[1,2-a]azocin-6-yl)carbamoyl)naphthalen-2-yl)methyl)(phenoxy)phosphoryl)-L-alaninate] | > 3 µM
8 | – | CCCOC(=O)[C@H](C)NP(=O)(Oc1ccccc1)C(C)(F)c1ccc2sc(C(=O)N[C@H]3CCCC[C@H]4CC[C@@H](C(=O)N5CCC(c6cccnc6)C5)N4C3=O)cc2c1 (stereo partly drawn) [Compound 314, propyl ((1-fluoro-1-(2-(((3S,6S,10aS)-5-oxo-3-(3-(pyridin-3-yl)pyrrolidine-1-carbonyl)decahydropyrrolo[1,2-a]azocin-6-yl)carbamoyl)benzo [b]thiophen-5-yl)ethyl)(phenoxy)phosphoryl)-L-alaninate] | > 3 µM
9 | – | CCCOC(=O)[C@H](C)NP(=O)(Oc1ccccc1)[C@@H](F)c1ccc2sc(C(=O)N[C@H]3CCCC[C@H]4CC[C@@H](C(=O)N5C(=O)N(c6ccc(C(F)(F)F)nc6)C(=O)C56CC6)N4C3=O)cc2c1 (stereo partly drawn) [Compound 327, propyl (((R)-(2-(((3S,6S,10aS)-3-(5,7-dioxo-6-(6-(trifluoromethyl)pyridin-3-yl)-4,6-diazaspiro[2.4]heptane-4-carbonyl)-5-oxodecahydropyrrolo [1,2-a]azocin-6-yl)carbamoyl)benzo [b]thiophen-5-yl)fluoromethyl) (phenoxy)phosphoryl)-L-alaninate] | > 3 µM
10 | – | CCCOC(=O)[C@H](C)NP(=O)(Oc1ccccc1)[C@@H](F)c1ccc2sc(C(=O)N[C@H]3CCCC[C@H]4CC[C@@H](C(=O)N5C(=O)N(c6ccc(C)nc6)C(=O)C56CC6)N4C3=O)cc2c1 (stereo partly drawn) [Compound 328, propyl (((R)-fluoro(2-(((3S,6S,10aS)-3-(6-(6-methylpyridin-3-yl)-5,7-dioxo-4,6-diazaspiro[2.4]heptane-4-carbonyl)-5-oxodecahydropyrrolo [1,2-a]azocin-6-yl)carbamoyl)benzo [b]thiophen-5-yl)methyl)(phenoxy)phosphoryl)-L-alaninate] | 0.1 to 1 µM
11 | – | CCCOC(=O)[C@H](C)NP(=O)(Oc1ccccc1)[C@@H](F)c1ccc2sc(C(=O)N[C@H]3CCCC[C@H]4CC[C@@H](C(=O)N5C(=O)N(c6ccc(OC)nc6)C(=O)C56CC6)N4C3=O)cc2c1 (stereo partly drawn) [Compound 329, propyl (((R)-fluoro(2-(((3S,6S,10aS)-3-(6-(6-methoxypyridin-3-yl)-5,7-dioxo-4,6-diazaspiro[2.4]heptane-4-carbonyl)-5-oxodecahydropyrrolo [1,2-a]azocin-6-yl)carbamoyl)benzo [b]thiophen-5-yl)methyl)(phenoxy)phosphoryl)-L-alaninate] | > 3 µM
12 | – | CCCOC(=O)[C@H](C)NP(=O)(Oc1ccccc1)[C@@H](F)c1ccc2sc(C(=O)N[C@H]3CCCC[C@H]4CC[C@@H](C(=O)N5C(=O)N(c6cncc(C(F)(F)F)c6)C(=O)C56CC6)N4C3=O)cc2c1 (stereo partly drawn) [Compound 330, propyl (((R)-(2-(((3S,6S,10aS)-3-(5,7-dioxo-6-(5-(trifluoromethyl)pyridin-3-yl)-4,6-diazaspiro[2.4]heptane-4-carbonyl)-5-oxodecahydropyrrolo [1,2-a]azocin-6-yl)carbamoyl)benzo [b]thiophen-5-yl)fluoromethyl) (phenoxy)phosphoryl)-L-alaninate] | > 3 µM
